Laboratory results: ChEMBL document CHEMBL4024706 (Eur J Med Chem, 2017)
Calls of active or inactive are those of the source. The rule behind the calls is not given here.

Experiments:
[1] = target: Tyrosine-protein kinase BTK (Homo sapiens, UniProt Q06187); experiment: Inhibition of full length recombinant human N-terminal His tagged […] expressed in baculovirus infected Sf9 insect cells using poly (Glu,Tyr)4:1 as substrate pretreated for 60 mins followed by substrate addition after 1 hr by ADP-Glo luminescence assay
Tyrosine-protein kinase BTK, sequence (Q06187 whole entry): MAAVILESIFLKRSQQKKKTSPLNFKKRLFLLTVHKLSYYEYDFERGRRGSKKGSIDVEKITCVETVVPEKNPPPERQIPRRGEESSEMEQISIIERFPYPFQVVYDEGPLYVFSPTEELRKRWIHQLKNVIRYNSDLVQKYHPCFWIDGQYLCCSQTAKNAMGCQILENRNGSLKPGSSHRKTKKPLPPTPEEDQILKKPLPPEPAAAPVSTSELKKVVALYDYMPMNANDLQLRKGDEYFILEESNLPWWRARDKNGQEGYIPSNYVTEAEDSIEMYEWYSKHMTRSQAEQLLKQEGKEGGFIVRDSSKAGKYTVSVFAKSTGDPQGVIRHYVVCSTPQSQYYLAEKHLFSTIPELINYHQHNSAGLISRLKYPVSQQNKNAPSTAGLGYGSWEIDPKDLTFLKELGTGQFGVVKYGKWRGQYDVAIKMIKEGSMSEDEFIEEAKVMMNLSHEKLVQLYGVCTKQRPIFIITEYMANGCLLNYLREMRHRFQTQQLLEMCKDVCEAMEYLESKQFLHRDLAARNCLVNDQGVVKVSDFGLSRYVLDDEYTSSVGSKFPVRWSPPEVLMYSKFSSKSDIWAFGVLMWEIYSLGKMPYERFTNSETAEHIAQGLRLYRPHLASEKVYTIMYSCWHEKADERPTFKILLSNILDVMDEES

[2] = target: T1, Tyrosine-protein kinase JAK3 (Homo sapiens, UniProt P52333); experiment: Inhibition of recombinant human N-terminal GST-tagged JAK3 (781 to end residues) expressed in baculovirus infected Sf9 insect cells using poly (Glu,Tyr)4:1 as substrate pretreated for 60 mins followed by substrate addition after 1 hr by ADP-Glo luminescence assay
T1 sequence (P52333 whole entry): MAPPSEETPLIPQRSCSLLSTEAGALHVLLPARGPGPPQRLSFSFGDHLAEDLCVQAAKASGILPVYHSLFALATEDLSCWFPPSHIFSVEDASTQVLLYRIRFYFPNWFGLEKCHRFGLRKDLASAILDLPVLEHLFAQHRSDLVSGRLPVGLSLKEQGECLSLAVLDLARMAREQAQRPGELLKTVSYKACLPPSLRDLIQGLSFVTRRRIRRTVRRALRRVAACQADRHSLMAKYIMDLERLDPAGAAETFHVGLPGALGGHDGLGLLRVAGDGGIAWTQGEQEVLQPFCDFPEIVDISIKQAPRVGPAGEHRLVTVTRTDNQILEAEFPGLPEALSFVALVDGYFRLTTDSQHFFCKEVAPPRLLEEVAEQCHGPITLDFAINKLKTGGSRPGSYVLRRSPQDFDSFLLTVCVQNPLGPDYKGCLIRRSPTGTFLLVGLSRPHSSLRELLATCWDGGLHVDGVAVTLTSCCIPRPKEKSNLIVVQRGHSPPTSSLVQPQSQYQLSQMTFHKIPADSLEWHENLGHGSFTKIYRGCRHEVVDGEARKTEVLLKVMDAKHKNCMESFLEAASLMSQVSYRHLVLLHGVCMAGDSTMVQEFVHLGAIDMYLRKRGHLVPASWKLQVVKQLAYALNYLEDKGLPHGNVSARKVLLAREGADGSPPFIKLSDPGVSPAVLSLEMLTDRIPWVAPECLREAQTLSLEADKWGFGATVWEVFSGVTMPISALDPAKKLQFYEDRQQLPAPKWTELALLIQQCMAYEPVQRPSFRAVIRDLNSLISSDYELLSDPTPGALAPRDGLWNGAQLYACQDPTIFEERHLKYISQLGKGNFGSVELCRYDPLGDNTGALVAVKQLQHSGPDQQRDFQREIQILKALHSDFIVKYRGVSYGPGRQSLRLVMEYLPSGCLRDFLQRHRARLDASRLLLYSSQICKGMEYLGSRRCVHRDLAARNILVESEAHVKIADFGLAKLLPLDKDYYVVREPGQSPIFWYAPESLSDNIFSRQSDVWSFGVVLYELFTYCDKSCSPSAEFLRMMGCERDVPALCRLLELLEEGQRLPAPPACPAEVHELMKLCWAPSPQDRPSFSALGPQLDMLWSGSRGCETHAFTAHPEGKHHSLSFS

[3] = target: Epidermal growth factor receptor (Homo sapiens, UniProt P00533); experiment: Inhibition of recombinant human N-terminal GST-tagged wild-type EGFR (695 to end residues) expressed in baculovirus infected Sf9 insect cells using poly (Glu,Tyr)4:1 as substrate pretreated for 60 mins followed by substrate addition after 1 hr by ADP-Glo luminescence assay
Epidermal growth factor receptor, sequence (P00533 whole entry): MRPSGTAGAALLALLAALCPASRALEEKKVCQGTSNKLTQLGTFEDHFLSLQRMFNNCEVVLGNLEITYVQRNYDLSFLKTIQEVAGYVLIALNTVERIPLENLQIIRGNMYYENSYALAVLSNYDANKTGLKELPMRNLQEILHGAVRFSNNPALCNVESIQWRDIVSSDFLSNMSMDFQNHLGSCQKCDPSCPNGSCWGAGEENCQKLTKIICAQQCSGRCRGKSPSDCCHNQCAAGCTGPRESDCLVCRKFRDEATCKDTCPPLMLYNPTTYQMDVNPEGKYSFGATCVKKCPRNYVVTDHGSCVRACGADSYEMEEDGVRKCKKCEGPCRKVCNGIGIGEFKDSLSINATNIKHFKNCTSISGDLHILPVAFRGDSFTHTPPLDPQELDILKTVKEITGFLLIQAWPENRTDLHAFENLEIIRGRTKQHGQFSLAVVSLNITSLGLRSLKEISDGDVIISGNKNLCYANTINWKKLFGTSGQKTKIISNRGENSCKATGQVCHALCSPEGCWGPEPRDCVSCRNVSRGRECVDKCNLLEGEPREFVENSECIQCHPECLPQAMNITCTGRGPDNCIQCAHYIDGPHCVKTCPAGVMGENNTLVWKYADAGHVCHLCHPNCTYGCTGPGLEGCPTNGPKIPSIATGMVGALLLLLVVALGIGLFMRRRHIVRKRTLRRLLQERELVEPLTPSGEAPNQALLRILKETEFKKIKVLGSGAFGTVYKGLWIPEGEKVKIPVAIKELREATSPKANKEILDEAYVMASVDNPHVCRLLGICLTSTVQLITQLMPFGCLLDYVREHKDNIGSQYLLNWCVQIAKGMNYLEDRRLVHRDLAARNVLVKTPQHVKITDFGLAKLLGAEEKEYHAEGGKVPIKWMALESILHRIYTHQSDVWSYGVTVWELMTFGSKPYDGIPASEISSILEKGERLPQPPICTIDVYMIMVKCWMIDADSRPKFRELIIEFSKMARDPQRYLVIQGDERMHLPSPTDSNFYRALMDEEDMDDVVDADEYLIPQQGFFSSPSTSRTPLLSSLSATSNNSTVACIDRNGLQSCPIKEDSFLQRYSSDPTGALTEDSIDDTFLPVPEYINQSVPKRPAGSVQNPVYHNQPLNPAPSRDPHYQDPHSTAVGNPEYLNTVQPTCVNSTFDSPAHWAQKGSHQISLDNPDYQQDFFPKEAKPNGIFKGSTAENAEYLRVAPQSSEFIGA

[4] = Growth inhibition of human M07e cells; type: functional
[5] = system: Pfeiffer; experiment: Growth inhibition of human Pfeiffer cells; type: functional
[6] = system: OCI-AML-3; experiment: Growth inhibition of human OCI-AML3 cells; type: functional
[7] = system: U2932; experiment: Growth inhibition of human U2932 cells; type: functional
[8] = system: Ramos; experiment: Growth inhibition of human Ramos cells; type: functional
[9] = system: Pfeiffer; experiment: Cell cycle arrest in human Pfeiffer cells assessed as increase in accumulation at G0/G1 phase at 10 uM after 48 hrs by propidium iodide/RNase staining based flow cytometric method; type: functional
[10] = system: PBMC; experiment: Cytotoxicity against PBMC (unknwon origin); type: cell-based
[11] = system: SU-DHL-2; experiment: Growth inhibition of human SU-DHL-2 cells; type: functional
[12] = system: SKM-1; experiment: Growth inhibition of human SKM1 cells; type: functional
[13] = system: MV4-11; experiment: Growth inhibition of human MV411 cells; type: functional
[14] = system: NB-4; experiment: Growth inhibition of human NB4 cells; type: functional
[15] = system: U2932; experiment: Cell cycle arrest in human U2932 cells assessed as increase in accumulation at G0/G1 phase at 10 uM after 48 hrs by propidium iodide/RNase staining based flow cytometric method; type: functional
[16] = system: U-937; experiment: Growth inhibition of human U937 cells; type: functional

Structure (SMILES) | IC50 [1] | further results
C=CC(=O)Nc1cc(Nc2cc(-c3cccc(NC(=O)c4ccc(C)cc4)c3C)cn(C)c2=O)ccc1C(=O)N1CCOCC1 | 114 nM | 
C=CC(=O)Nc1cccc(Nc2ncc(NC(=O)c3cc(NC(=O)c4cccc(C(F)(F)F)c4)ccc3C)cn2)c1 |  | IC50 [2]: 1700 nM; IC50 [3]: 72 nM
C=CC(=O)Nc1cc(Nc2cc(-c3cccc(NC(=O)c4ccc(C)c(C(F)(F)F)c4)c3C)cn(C)c2=O)ccc1C(=O)N1CCOCC1 | 1260 nM | 
C=CC(=O)Nc1cc(Nc2cc(-c3cccc(NC(=O)c4ccc(C(C)(C)C)cc4)c3C)cn(C)c2=O)ccc1C(=O)N(C)C | 34 nM | 
C=CC(=O)Nc1cc(Nc2cc(-c3cccc(NC(=O)c4ccc5c(c4)OCCO5)c3C)cn(C)c2=O)ccc1C(=O)N1CCOCC1 | 89 nM | 
C=CC(=O)N1CCCC(Nc2cc(-c3cccc(NC(=O)c4ccc(N(C)C)cc4)c3C)cn(C)c2=O)C1 (stereo unspecified) | > 10000 nM | 
C=CC(=O)Nc1ccc(NC(=O)c2ccc(C(C)(C)C)cc2)c(C)c1-c1cc(Nc2ccc(C(=O)N3CCOCC3)cc2)c(=O)n(C)c1 | 1700 nM | 
C=CC(=O)Nc1cc(Nc2cc(-c3cccc(NC(=O)c4ccc(N(C)C)cc4)c3C)cn(C)c2=O)ccc1C(=O)N(CCOCC)CCOCC | 3190 nM | 
C=CC(=O)Nc1cccc(Nc2cc(-c3cccc(NC(=O)c4ccc(C(C)(C)C)cc4)c3C)cn(C)c2=O)c1 | > 10000 nM | 
C=CC(=O)Nc1cc(C(=O)N2CCOCC2)ccc1Nc1cc(-c2cccc(NC(=O)c3ccc(C(C)(C)C)cc3)c2C)cn(C)c1=O | 231 nM | 
C=CC(=O)Nc1cc(Nc2cc(-c3cccc(NC(=O)c4cccc(OC)c4)c3C)cn(C)c2=O)ccc1C(=O)N1CCOCC1 | 1190 nM | 
C=CC(=O)Nc1cc(Nc2cc(-c3cccc(NC(=O)c4ccc(CC)cc4)c3C)cn(C)c2=O)ccc1C(=O)N1CCOCC1 | 210 nM | 
C=CC(=O)N1CCc2ccc(-n3c(=O)ccc4cnc5ccc(-c6cnn(C)c6)cc5c43)cc21 |  | IC50 [2]: 3340 nM; IC50 [3]: 874 nM
C=CC(=O)Nc1cc(Nc2cc(-c3cccc(NC(=O)c4ccc(C(C)(C)C)cc4)c3C)cn(C)c2=O)ccc1C(=O)N1CCC(OC)CC1 | 65 nM | 
C=CC(=O)N1CCC(Nc2cc(-c3cccc(NC(=O)c4ccc(N(C)C)cc4)c3C)cn(C)c2=O)CC1 | > 10000 nM | 
C=CC(=O)Nc1cc(Nc2cc(-c3cccc(NC(=O)c4ccc(N(C)C)cc4)c3C)cn(C)c2=O)ccc1C(=O)N1CCC(OC)CC1 | 596 nM | 
C=CC(=O)Nc1cc(Nc2cc(-c3cccc(NC(=O)c4ccc(N(C)C)cc4)c3C)cn(C)c2=O)ccc1C(=O)N1CCC(O)CC1 | 187 nM | 
C=CC(=O)Nc1cc(Nc2cc(-c3cccc(NC(=O)c4ccc5c(c4)CCCC5)c3C)cn(C)c2=O)ccc1C(=O)N1CCOCC1 | 57 nM | 
C=CC(=O)Nc1cc(Nc2cc(-c3cccc(NC(=O)c4ccc(C(F)(F)F)cc4)c3C)cn(C)c2=O)ccc1C(=O)N1CCOCC1 | 76 nM | 
C=CC(=O)Nc1cc(Nc2cc(-c3cccc(NC(=O)c4cc(OC)c(OC)c(OC)c4)c3C)cn(C)c2=O)ccc1C(=O)N1CCOCC1 | 1430 nM | 
Cc1c(NC(=O)c2ccc(C(C)(C)C)cc2)cccc1-c1cc(Nc2ccc(C(=O)N3CCOCC3)c(NC(=O)CCl)c2)c(=O)n(C)c1 | 63 nM | 

Structure (SMILES) | IC50 [1] | further results
C=CC(=O)Nc1cc(Nc2cc(-c3cccc(NC(=O)c4ccc(OC)cc4)c3C)cn(C)c2=O)ccc1C(=O)N1CCOCC1 | 2610 nM | 
C=CC(=O)N1CCC[C@@H](n2nc(-c3ccc(Oc4ccccc4)cc3)c3c(N)ncnc32)C1 [IBRUTINIB] |  | GI50 [4]: 590 nM; GI50 [5]: 1600 nM; GI50 [6]: 9200 nM; GI50 [7]: 4400 nM; GI50 [8]: 3400 nM; Activity [9]: Active; Activity [10]: Non-Toxic; GI50 [11]: 640 nM; GI50 [12]: 3600 nM; GI50 [13]: 250 nM; GI50 [14]: 3000 nM; Activity [15]: Active; GI50 [16]: 2900 nM
C=CC(=O)Nc1cc(Nc2cc(-c3cccc(NC(=O)c4cccc(C(F)(F)F)c4)c3C)cn(C)c2=O)ccc1C(=O)N1CCOCC1 | > 10000 nM | 
C=CC(=O)Nc1cccc(Nc2nc(Nc3ccc(OCCOC)cc3)ncc2F)c1 [SPEBRUTINIB] |  | IC50 [2]: 1750 nM; IC50 [3]: 442 nM
C=CC(=O)Nc1cc(Nc2cc(-c3cccc(NC(=O)c4ccc(N(C)C)cc4)c3C)cn(C)c2=O)ccc1C(=O)N1CCCC(O)C1 (stereo unspecified) | 244 nM | 
C=CC(=O)NC1CCCN(c2cc(-c3cccc(NC(=O)c4ccc(N(C)C)cc4)c3C)cn(C)c2=O)C1 (stereo unspecified) | > 10000 nM | 
C=CC(=O)NC1CCCC(Nc2cc(-c3cccc(NC(=O)c4ccc(N(C)C)cc4)c3C)cn(C)c2=O)C1 (stereo unspecified) | 2950 nM | 
C=CC(=O)Nc1cc(Nc2cc(-c3cccc(NC(=O)c4ccc(C(C)(C)C)cc4)c3C)cn(C)c2=O)ccc1C(=O)N1CCCC(O)C1 (stereo unspecified) | 21 nM | 
C=CC(=O)Nc1cc(Nc2cc(-c3cccc(NC(=O)c4ccc(C(C)(C)C)cc4)c3C)cn(C)c2=O)ccc1C(=O)OC | 197 nM | 
C=CC(=O)Nc1cc(Nc2cc(-c3cccc(NC(=O)c4ccc(N5CCCC5)cc4)c3C)cn(C)c2=O)ccc1C(=O)N1CCOCC1 | 86 nM | 
C=CC(=O)Nc1cc(Nc2cc(-c3cccc(NC(=O)c4ccc(C(C)C)cc4)c3C)cn(C)c2=O)ccc1C(=O)N1CCOCC1 | 32 nM | 
C=CC(=O)Nc1cccc(Nc2nc(Nc3ccc(Oc4ccnc(C(=O)NC)c4)cc3)ncc2F)c1 |  | IC50 [2]: 1530 nM
C=CC(=O)Nc1cc(Nc2cc(-c3cccc(NC(=O)c4ccc(C(C)(C)C)cc4)c3C)cn(C)c2=O)ccc1C | 365 nM | 
C=CC(=O)Nc1cc(Nc2cc(-c3cccc(NC(=O)c4ccc5c(c4)OCO5)c3C)cn(C)c2=O)ccc1C(=O)N1CCOCC1 | 282 nM | 
C=CC(=O)NC1CCN(c2cc(-c3cccc(NC(=O)c4ccc(N(C)C)cc4)c3C)cn(C)c2=O)CC1 | > 10000 nM | 
C=CC(=O)Nc1cc(Nc2cc(-c3cccc(NC(=O)c4ccc(C(C)(C)C)cc4)c3C)cn(C)c2=O)ccc1C(=O)N1CCN(C)CC1 | 127 nM | 
C=CC(=O)Nc1cc(Nc2cc(-c3cccc(NC(=O)c4ccccc4)c3C)cn(C)c2=O)ccc1C(=O)N1CCOCC1 | 3740 nM | 
C=CC(=O)Nc1cc(Nc2cc(-c3cccc(NC(=O)c4ccc(N5CCOCC5)cc4)c3C)cn(C)c2=O)ccc1C(=O)N1CCOCC1 | 273 nM | 
C=CC(=O)Nc1cc(Nc2cc(-c3cccc(NC(=O)c4ccc(C(C)(C)C)cc4)c3C)cn(C)c2=O)ccc1C(=O)NC1CC1 | 41 nM | 
C=CC(=O)Nc1cc(Nc2cc(-c3cccc(NC(=O)c4ccc(C(C)(C)C)cc4)c3C)cn(C)c2=O)ccc1C(=O)N1CCN(C(=O)OC(C)(C)C)CC1 | 68 nM | 
